≈ marks a conversion by molar mass, not a printed value. Read-outs that look alike come from different tables or passages of the source.
Columns and labels:
[1] = tested on: Escherichia coli NIHTC-2; test: MIC, agar dilution method, pH 7.2; assay type: cell-based
Protocol: (§1) Measurement was carried out according to the agar dilution method, using a medium of pH 8.0, or the Japanese Antibiotic Medicament Standard, using a medium of pH 7.2 Units are in mcg/ml.

[2] = tested on: Eschericihia coli GN2411-5; test: MIC, agar dilution method, pH 7.2; assay type: cell-based; conditions: Escherichia coli
Protocol: as §1

[3] = tested on: Klebsiella pneumoniae KY4274; test: MIC, agar dilution method, pH 7.2; assay type: cell-based
Protocol: as §1

[4] = tested on: Proteus vulgaris JJ; test: MIC, agar dilution method, pH 7.2; assay type: cell-based
Protocol: as §1

[5] = tested on: Pseudomonas aeruginosa BMH# 1; test: MIC, agar dilution method, pH 7.2; assay type: cell-based
Protocol: as §1

[6] = tested on: Pseudomonas aeruginosa UCLA 4184; test: MIC, agar dilution method, pH 7.2; assay type: cell-based; conditions: UCLA4184; pH 7.2; Pseudomonas aeruginosa UCLA 4184; read-out: Minimum inhibition concentration (MIC)
Protocol: as §1

[7] = tested on: Salmonella enteritidis G-14; test: MIC, agar dilution method, pH 7.2; assay type: cell-based; conditions: Salmonella enterica
Protocol: as §1

[8] = tested on: Shigella sonnei ATCC9290; test: MIC, agar dilution method, pH 7.2; assay type: cell-based; conditions: read-out: Minimum inhibition concentration (MIC)
Protocol: as §1

[9] = tested on: Staphylococcus aureus 209-P; test: MIC, agar dilution method, pH 7.2; assay type: cell-based; conditions: pH 7.2; Staphylococcus aureus 209-P; read-out: Minimum inhibition concentration (MIC)
Protocol: as §1

[10] = tested on: Staphylococcus aureus Smith (A); test: MIC, agar dilution method, pH 7.2; assay type: cell-based; conditions: pH 7.2; Staphylococcus aureus Smith (A); read-out: Minimum inhibition concentration (MIC)
Protocol: as §1

[11] = tested on: Staphylococcus a ureus 226; test: MIC, agar dilution method, pH 7.2; assay type: cell-based, Staphylococcus aureus; conditions: pH 7.2; Staphylococcus aureus 226; read-out: Minimum inhibition concentration (MIC)
Protocol: as §1

[12] = tested on: Eschericihia coli 3100; test: MIC, agar dilution method, pH 7.2; assay type: cell-based, Escherichia coli; conditions: Escherichia coli; pH 7.2; E. coli 3100; read-out: Minimum inhibition concentration (MIC)
Protocol: as §1

[13] = tested on: Escherichia coli 57R/W677; test: MIC, agar dilution method, pH 7.2; assay type: cell-based; conditions: 57R/W677, pH 7.2, read-out: Minimum inhibition concentration (MIC)
Protocol: as §1
(§2) **1: gentamicin, producing adenylsynthetase.

[14] = tested on: Escherichia coli 76-2; test: MIC, agar dilution method, pH 7.2; assay type: cell-based
Protocol: as §1, §2

[15] = tested on: Escherichia coli R12 Z-338; test: MIC, agar dilution method, pH 7.2; assay type: cell-based; conditions: R12Z338, pH 7.2, E. coli R12 Z-338, 1**: gentamicin, producing adenylsynthetase, read-out: Minimum inhibition concentration (MIC)
Protocol: as §1, §2

[16] = tested on: Klebsiella pneumoniae 3020 Y-60; test: MIC, agar dilution method, pH 7.2; assay type: cell-based; conditions: 3020Y60; pH 7.2; Klebsiella pneumoniae 3020 Y-60; 1**: gentamicin, producing adenylsynthetase; read-out: Minimum inhibition concentration (MIC)
Protocol: as §1, §2

[17] = tested on: Escherichia coli R18 KY8321; test: MIC, agar dilution method, pH 7.2; assay type: cell-based; conditions: R18KY8321, E. coli R18 KY8321, 2**: gentamicin, producing adenylsynthetase and neomycin phosphotransferase type II, read-out: Minimum inhibition concentration (MIC)
Protocol: as §1
2: gentamicin, producing adenylsynthetase and neomycin phosphotransferase

[18] = tested on: Escherichia coli R17 Z343; test: MIC, agar dilution method, pH 7.2; assay type: cell-based
Protocol: as §1
(§3) 3: kanamycin, producing acetyltransferase.

[19] = tested on: Pseudomonas aeruginosa R9 KY8516; test: MIC, agar dilution method, pH 7.2; assay type: cell-based; conditions: R9KY8516, pH 7.2, P. aeruginosa R9 KY8516, 3**: kanamycin, producing acetyltransferase, read-out: Minimum inhibition concentration (MIC)
Protocol: as §1, §3

[20] = tested on: Serratia marcescens 1065; test: MIC, agar dilution method, pH 7.2; assay type: cell-based
Protocol: as §1, §3

[21] = tested on: Escherichia coli R19 KY8348; test: MIC, agar dilution method, pH 7.2; assay type: cell-based; conditions: R19KY8348, pH 7.2, E. coli R19 KY8348, 4**: gentamicin, producing acetyltransferase type I, read-out: Minimum inhibition concentration (MIC)
Protocol: as §1
(§4) 4: gentamicin, producing acetyltransferase type I.

[22] = tested on: Pseudomonas aeruginosa R4 KY8511; test: MIC, agar dilution method, pH 7.2; assay type: cell-based; conditions: R4KY8511, pH 7.2, P. aeruginosa R4 KY8511, 4**: gentamicin, producing acetyltransferase type I, read-out: Minimum inhibition concentration (MIC)
Protocol: as §1, §4

[23] = tested on: Escherichia coli R20 KY8349; test: MIC, agar dilution method, pH 7.2; assay type: cell-based
Protocol: as §1
5: neomycin, producing phosphotransferase type I.

[24] = tested on: Pseudomonas aeruginosa R5 KY8512; test: MIC, agar dilution method, pH 7.2; assay type: cell-based
Protocol: as §1
6: neomycin, producing phosphotransferase type I and type II.

[25] = tested on: Providencia sp 164; test: MIC, agar dilution method, pH 7.2; assay type: cell-based; conditions: pH 7.2; Providencia sp 164; 7**: gentamicin, producing acetyltransferase type II; read-out: Minimum inhibition concentration (MIC)
Protocol: as §1
7: gentamicin, producing acetyltransferase type II.

[26] = tested on: Staphylococcus aureus KY4279 ATCC6538P; test: MIC, agar dilution method, pH 8.0; assay type: cell-based; conditions: pH 8.0, Staphylococcus aureus KY4279, read-out: Minimum inhibition concentration (MIC), SA
Protocol: as §1
S.A.: Staphylococcus aureus KY4279 ATCC6538P

[27] = tested on: Bacillus subtilis KY4273; test: MIC, agar dilution method, pH 8.0; assay type: cell-based; conditions: pH 8.0; Bacillus subtilis KY4273; read-out: Minimum inhibition concentration (MIC), BS
Protocol: as §1
B.S.: Bacillus subtilis KY4273

[28] = tested on: Salmonella typhosa KY4278 ATCC9992; test: MIC, agar dilution method, pH 8.0; assay type: cell-based; conditions: Salmonella enterica, pH 8, read-out: Minimum inhibition concentration (MIC), ST
Protocol: as §1
S.T.: Salmonella typhosa KY4278 ATCC9992

[29] = tested on: Klebsiella pneumoniae KY4275 ATCC10031; test: MIC, agar dilution method, pH 8.0; assay type: cell-based; conditions: ATCC10031; pH 8.0; Klebsiella pneumoniae KY4275; read-out: Minimum inhibition concentration (MIC), KP
Protocol: as §1
K.P.: Klebsiella pneumoniae KY4275 ATCC10031.

SMILES	MIC [6] [µg/mL]	MIC [8] [µg/mL]	MIC [9] [µg/mL]	MIC [10] [µg/mL]	MIC [11] [µg/mL]	MIC [12] [µg/mL]	MIC [13] [µg/mL]	MIC [15] [µg/mL]	MIC [16] [µg/mL]	MIC [17] [µg/mL]	MIC [19] [µg/mL]	MIC [21] [µg/mL]	MIC [22] [µg/mL]	MIC [25] [µg/mL]	MIC [26] [µg/mL]	MIC [27] [µg/mL]	MIC [28] [µg/mL]	MIC [29] [µg/mL]	other results
CO[C@H]1[C@@H](O)[C@H](N)[C@@H](O[C@H]2O[C@H]([C@H](C)N)CC[C@H]2N)[C@H](O)[C@@H]1N(C)C(=O)CNC(N)=O [Compound 3, 4-N-hydantoylfortimicin B, reference compound]	50 (≈ 111 µM)	25 (≈ 55.7 µM)	3.12 (≈ 6.96 µM)	6.25 (≈ 13.9 µM)	6.25 (≈ 13.9 µM)	12.5 (≈ 27.9 µM)	25 (≈ 55.7 µM)	6.25 (≈ 13.9 µM)	100 (≈ 223 µM)	6.25 (≈ 13.9 µM)	> 100	> 100	> 100	100 (≈ 223 µM)	0.16 (≈ 0.357 µM)	0.32 (≈ 0.713 µM)	0.32 (≈ 0.713 µM)	0.63 (≈ 1.4 µM)	MIC ([1]; NIHTC2, pH 7.2, Escherichia coli NIHTC-2, read-out: Minimum inhibition concentration (MIC)): 12.5 µg/mL (≈ 27.9 µM); MIC ([2]; pH 7.2, E. coli GN2411-5, read-out: Minimum inhibition concentration (MIC)): 25 µg/mL (≈ 55.7 µM); MIC ([3]; pH 7.2, Klebsiella pneumoniae KY4274, read-out: Minimum inhibition concentration (MIC)): 12.5 µg/mL (≈ 27.9 µM); MIC ([4]; pH 7.2, Proteus vulgaris JJ, read-out: Minimum inhibition concentration (MIC)): 12.5 µg/mL (≈ 27.9 µM); MIC ([5]; pH 7.2, Pseudomonas aeruginosa BMH# 1, read-out: Minimum inhibition concentration (MIC)): 100 µg/mL (≈ 223 µM); MIC ([7]; pH 7.2, Salmonella enteritidis G-14, read-out: Minimum inhibition concentration (MIC)): 25 µg/mL (≈ 55.7 µM); MIC ([14]; Escherichia coli, 762, pH 7.2, E. coli 76-2, 1**: gentamicin, producing adenylsynthetase, read-out: Minimum inhibition concentration (MIC)): 12.5 µg/mL (≈ 27.9 µM); MIC ([18]; R17Z343, pH 7.2, E. coli R17 Z343, 3**: kanamycin, producing acetyltransferase, read-out: Minimum inhibition concentration (MIC)): 3.12 µg/mL (≈ 6.96 µM); MIC ([20]; pH 7.2, Serratia marcescens 1065, 3**: kanamycin, producing acetyltransferase, read-out: Minimum inhibition concentration (MIC)): 50 µg/mL (≈ 111 µM); MIC ([23]; R20KY8349, pH 7.2, E. coli R20 KY8349, 5**: neomycin, producing phosphotransferase type I, read-out: Minimum inhibition concentration (MIC)): 12.5 µg/mL (≈ 27.9 µM); MIC ([24]; R5KY8512, pH 7.2, P. aeruginosa R5 KY8512, 6**: neomycin, producing phosphotransferase type I and type II, read-out: Minimum inhibition concentration (MIC)): 50 µg/mL (≈ 111 µM)
CO[C@H]1[C@@H](O)[C@H](N)[C@@H](O[C@H]2O[C@H]([C@H](C)N)CC[C@H]2N)[C@H](O)[C@@H]1N(C)C[C@@H](O)CCN [Compound 27, 4-N-[(S)-4-amino-2-hydroxybutyl]fortimicin B]	25 (≈ 57.4 µM)	3.12 (≈ 7.16 µM)	0.4 (≈ 0.918 µM)	0.4 (≈ 0.918 µM)	0.4 (≈ 0.918 µM)	12.5 (≈ 28.7 µM)	12.5 (≈ 28.7 µM)	12.5 (≈ 28.7 µM)	12.5 (≈ 28.7 µM)	6.25 (≈ 14.3 µM)	25 (≈ 57.4 µM)	> 100	> 100	25 (≈ 57.4 µM)	0.04 (≈ 0.0918 µM)	0.04 (≈ 0.0918 µM)	0.16 (≈ 0.367 µM)	0.32 (≈ 0.735 µM)	MIC ([1]; Escherichia coli, NIHTC2, pH 7.2, read-out: Minimum inhibition concentration (MIC)): 3.12 µg/mL (≈ 7.16 µM); MIC ([2]; GN2411, pH 7.2, read-out: Minimum inhibition concentration (MIC)): 6.25 µg/mL (≈ 14.3 µM); MIC ([3]; Klebsiella pneumoniae, KY4274, pH 7.2, read-out: Minimum inhibition concentration (MIC)): 3.12 µg/mL (≈ 7.16 µM); MIC ([4]; Proteus vulgaris, pH 7.2, read-out: Minimum inhibition concentration (MIC)): 3.12 µg/mL (≈ 7.16 µM); MIC ([5]; Pseudomonas aeruginosa, pH 7.2, read-out: Minimum inhibition concentration (MIC)): 6.25 µg/mL (≈ 14.3 µM); MIC ([7]; ENTERITIDIS, pH 7.2, read-out: Minimum inhibition concentration (MIC)): 3.12 µg/mL (≈ 7.16 µM); MIC ([14]; Escherichia coli, 762, pH 7.2, read-out: Minimum inhibition concentration (MIC)): 6.25 µg/mL (≈ 14.3 µM); MIC ([18]; R17Z343, pH 7.2, read-out: Minimum inhibition concentration (MIC)): 3.12 µg/mL (≈ 7.16 µM); MIC ([20]; Serratia marcescens, 1065, pH 7.2, read-out: Minimum inhibition concentration (MIC)): 6.25 µg/mL (≈ 14.3 µM); MIC ([23]; R20KY8349, pH 7.2, read-out: Minimum inhibition concentration (MIC)): 1.25 µg/mL (≈ 2.87 µM); MIC ([24]; R5KY8512, pH 7.2, read-out: Minimum inhibition concentration (MIC)): 6.25 µg/mL (≈ 14.3 µM)

Reference: patent US4220755A, “Fortimicin B derivatives and process for production thereof” (Abbott Laboratories, priority 1976, dated 1980)
